Laboratory results: PubChem BioAssay (NCI)
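Interpolation was linear, between the two tested concentrations surrounding the appropriate level; five concentrations were tested over 48 hours in 96-well plates. GI50 = concentration required for 50% inhibition of growth. Definition used: TGI = concentration required for complete inhibition of growth.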

Tests used:
Experiment in all cases: NCI tumour cell line growth inhibition, 48 h
T-47D breast = tested on: T-47D breast
SW-620 colon = tested on: SW-620 colon
A498 renal = tested on: A498 renal
OVCAR-3 ovarian = tested on: OVCAR-3 ovarian
MOLT-4 leukemia = tested on: MOLT-4 leukemia
M14 melanoma = tested on: M14 melanoma
OVCAR-5 ovarian = tested on: OVCAR-5 ovarian
SNB-19 CNS = tested on: SNB-19 CNS
K-562 leukemia = tested on: K-562 leukemia
HCC-2998 colon = tested on: HCC-2998 colon

| Structure (SMILES) | TGI (T-47D breast) [µM] | TGI (SW-620 colon) [µM] | TGI (A498 renal) [µM] | TGI (OVCAR-3 ovarian) [µM] | TGI (MOLT-4 leukemia) [µM] | TGI (M14 melanoma) [µM] | TGI (OVCAR-5 ovarian) [µM] | TGI (SNB-19 CNS) [µM] | TGI (K-562 leukemia) [µM] | TGI (HCC-2998 colon) [µM] | GI50 (SW-620 colon) [µM] | GI50 (A498 renal) [µM] | GI50 (M14 melanoma) [µM] | GI50 (SNB-19 CNS) [µM] | GI50 (HCC-2998 colon) [µM] | GI50 (T-47D breast) [µM] | GI50 (OVCAR-3 ovarian) [µM] | GI50 (MOLT-4 leukemia) [µM] | GI50 (OVCAR-5 ovarian) [µM] | GI50 (K-562 leukemia) [µM] |
| --- | --- | --- | --- | --- | --- | --- | --- | --- | --- | --- | --- | --- | --- | --- | --- | --- | --- | --- | --- | --- |
| Cc1ccc(S(=O)(=O)NC(CN)C(=O)O)cc1 (centres undefined) | > 100 | > 100 | > 100 | > 100 | > 100 | > 100 | > 100 | > 100 |  |  |  |  |  |  |  |  |  |  |  |  |
| Cc1ccc(S(=O)(=O)N/N=C(/c2nc3ccc([N+](=O)[O-])cc3[nH]c2=O)C(O)c2ccc(C(O)/C(=N\NS(=O)(=O)c3ccc(C)cc3)c3nc4ccc([N+](=O)[O-])cc4[nH]c3=O)cc2)cc1 (centres undefined) |  | > 100 | > 100 | > 100 | > 100 | > 100 | > 100 | > 100 | > 100 | 77.4 |  |  |  |  |  |  |  |  |  |  |
| COc1ccc(/C=C/C(=O)c2sc(-n3nc(-c4ccccc4)cc3-c3ccccc3)nc2C)cc1 |  | > 100 | > 100 | > 100 | > 100 | > 100 |  | > 100 | > 100 | > 100 | > 100 | > 100 | > 100 | > 100 | > 100 |  |  |  |  |  |
| COc1cc(CCc2ccc(N)cc2)cc(OC)c1OC |  | > 100 | > 100 | > 100 | > 100 | > 100 | > 100 | > 100 | > 100 | > 100 |  |  |  |  |  |  |  |  |  |  |
| CC(=O)C1=C(O)C2C3c4c[nH]c5cccc(c45)CC3C(C)(C)N2C1=O (centres undefined) |  | > 100 | 98.2 | 74.3 | > 100 | > 100 | > 100 | > 100 | > 100 | 63.4 |  |  |  |  |  |  |  |  |  |  |
| CC(=O)OC1COC(n2c(=S)n(-c3ccccc3)c(=O)c3ccccc32)C(OC(C)=O)C1OC(C)=O (centres undefined) |  | > 100 | > 100 | > 100 | > 100 | > 100 | > 100 | > 100 | > 100 | > 100 |  |  |  |  |  |  |  |  |  |  |
| CC(SC(=O)Nc1ccc(N=Nc2ccccc2)cc1)C(=O)O (centres undefined) |  | > 100 | > 100 | > 100 | > 100 | > 100 | > 100 | > 100 | > 100 | > 100 |  |  |  |  |  |  |  |  |  |  |
| CC1=C(Nc2ccc(N3CCN(C)CC3)cc2)C(=O)c2cncnc2C1=O | 4.26 | 8.04 |  | 4.28 | 6.39 | 32.2 | 16.9 | 37.2 | > 100 | 36 | 2.54 |  | 14.9 | 17.2 | 17.4 | 1.78 | 1.97 | 2.01 | 3.66 | 2.78 |
